Experimental data reported in paper PMC8462848, “Quinazolin-4(3H)-one based potential multiple tyrosine kinase inhibitors with excellent cytotoxicity” (Journal of Enzyme Inhibition and Medicinal Chemistry, 2021).

How the values were obtained:
CDK2/CyclinA2 [1] = biological target: T1, CDK2/CyclinA2 (Homo sapiens, UniProt P24941); experiment: CDK2 Assay Kit, Kinase-Glo MAX luminescence; type: biochemical; settings: mean ± SD of triplicate
T1 construct: purchased #79599

EGFR = biological target: T2, EGFR (Homo sapiens, UniProt P00533); experiment: EGFR kinase assay kit, Kinase-Glo MAX luminescence; type: biochemical; settings: for inhibition at 0.01 µM / inhibition at 0.1 µM / inhibition at 1 µM / inhibition at 10 µM: one experimental data; for IC50: mean ± SD of triplicate
T2 construct: purchased #40321
T2 sequence (P00533 25-1210): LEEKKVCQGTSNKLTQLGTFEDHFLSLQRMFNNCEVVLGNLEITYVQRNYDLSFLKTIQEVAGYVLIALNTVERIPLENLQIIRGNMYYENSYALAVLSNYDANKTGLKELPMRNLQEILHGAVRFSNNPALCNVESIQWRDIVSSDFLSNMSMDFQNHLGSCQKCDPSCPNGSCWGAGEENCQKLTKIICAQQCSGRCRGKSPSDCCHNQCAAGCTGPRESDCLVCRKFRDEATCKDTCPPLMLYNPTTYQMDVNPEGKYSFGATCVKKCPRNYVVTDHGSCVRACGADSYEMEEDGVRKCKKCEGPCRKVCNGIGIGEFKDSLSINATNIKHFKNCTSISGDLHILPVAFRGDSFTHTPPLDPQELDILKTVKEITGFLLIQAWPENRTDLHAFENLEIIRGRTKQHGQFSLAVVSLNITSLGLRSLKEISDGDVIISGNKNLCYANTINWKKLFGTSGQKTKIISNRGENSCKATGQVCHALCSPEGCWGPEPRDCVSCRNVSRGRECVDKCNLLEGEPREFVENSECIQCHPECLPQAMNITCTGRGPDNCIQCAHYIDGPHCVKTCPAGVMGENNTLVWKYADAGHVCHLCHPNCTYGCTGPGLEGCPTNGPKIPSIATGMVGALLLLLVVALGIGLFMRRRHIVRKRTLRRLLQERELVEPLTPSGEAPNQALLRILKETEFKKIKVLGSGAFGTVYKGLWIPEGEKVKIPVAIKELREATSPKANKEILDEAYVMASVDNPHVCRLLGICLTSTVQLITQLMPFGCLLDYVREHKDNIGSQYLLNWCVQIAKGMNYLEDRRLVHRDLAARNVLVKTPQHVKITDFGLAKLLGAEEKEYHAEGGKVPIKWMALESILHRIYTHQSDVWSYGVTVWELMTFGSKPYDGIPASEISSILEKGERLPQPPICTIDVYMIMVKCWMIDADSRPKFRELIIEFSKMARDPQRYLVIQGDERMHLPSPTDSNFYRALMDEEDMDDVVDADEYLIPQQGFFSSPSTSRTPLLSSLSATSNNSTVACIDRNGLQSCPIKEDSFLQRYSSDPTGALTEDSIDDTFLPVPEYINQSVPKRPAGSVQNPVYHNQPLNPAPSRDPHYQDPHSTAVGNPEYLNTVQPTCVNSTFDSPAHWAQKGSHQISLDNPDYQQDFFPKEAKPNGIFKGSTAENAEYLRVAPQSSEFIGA
Experimental: (§1) The HER2/EGFR/VEGFR2 assay kit is designed to measure HER2/EGFR/VEGFR-2 inhibitory activity for screening and profiling applications, using Kinase-Glo® MAX as a detection reagent. The HER2/EGFR/VEGFR2 assay kit comes in a convenient 96-well format, with enough purified recombinant HER2/EGFR/VEGFR2 enzyme, HER2/EGFR/VEGFR2 substrate, ATP and kinase buffer 1 for 100 enzyme reactions. […] […] The quinazolin-4(3H)-ones were diluted in 10% DMSO and 5 μl of the dilution was added to a 50 μl reaction so that the final concentration of DMSO was 1% in all of the reactions. All of the enzymatic reactions were conducted at 30 °C for 40 min. The 50 μl reaction mixture contained 40 mM Tris, pH 7.4, 10 mM MgCl2, 0.1 mg/mL BSA, 1 mM DTT, 10 mM ATP, kinase substrate and the enzyme HER2 / EGFR / VEGFR2. After the enzymatic reaction, 50 μl of Kinase-Glo® MAX luminescence kinase assay solution was added to each reaction and the plates were incubated for 5 min at room temperature. Luminescence signal was measured using a Bio Tek Synergy 2 microplate reader (For detail enzyme assay protocol and the results, please see supplementary data).

VEGFR2 = biological target: T3, VEGFR2 (Homo sapiens, UniProt P35968); experiment: VEGFR2 kinase assay kit, Kinase-Glo MAX luminescence; type: biochemical; settings: for inhibition at 0.01 µM / inhibition at 0.1 µM / inhibition at 1 µM / inhibition at 10 µM: one experimental data, read-out: % Inhibition VEGFR-2; for IC50: mean ± SD of triplicate
T3 construct: purchased #40325
T3 sequence (P35968 20-1356): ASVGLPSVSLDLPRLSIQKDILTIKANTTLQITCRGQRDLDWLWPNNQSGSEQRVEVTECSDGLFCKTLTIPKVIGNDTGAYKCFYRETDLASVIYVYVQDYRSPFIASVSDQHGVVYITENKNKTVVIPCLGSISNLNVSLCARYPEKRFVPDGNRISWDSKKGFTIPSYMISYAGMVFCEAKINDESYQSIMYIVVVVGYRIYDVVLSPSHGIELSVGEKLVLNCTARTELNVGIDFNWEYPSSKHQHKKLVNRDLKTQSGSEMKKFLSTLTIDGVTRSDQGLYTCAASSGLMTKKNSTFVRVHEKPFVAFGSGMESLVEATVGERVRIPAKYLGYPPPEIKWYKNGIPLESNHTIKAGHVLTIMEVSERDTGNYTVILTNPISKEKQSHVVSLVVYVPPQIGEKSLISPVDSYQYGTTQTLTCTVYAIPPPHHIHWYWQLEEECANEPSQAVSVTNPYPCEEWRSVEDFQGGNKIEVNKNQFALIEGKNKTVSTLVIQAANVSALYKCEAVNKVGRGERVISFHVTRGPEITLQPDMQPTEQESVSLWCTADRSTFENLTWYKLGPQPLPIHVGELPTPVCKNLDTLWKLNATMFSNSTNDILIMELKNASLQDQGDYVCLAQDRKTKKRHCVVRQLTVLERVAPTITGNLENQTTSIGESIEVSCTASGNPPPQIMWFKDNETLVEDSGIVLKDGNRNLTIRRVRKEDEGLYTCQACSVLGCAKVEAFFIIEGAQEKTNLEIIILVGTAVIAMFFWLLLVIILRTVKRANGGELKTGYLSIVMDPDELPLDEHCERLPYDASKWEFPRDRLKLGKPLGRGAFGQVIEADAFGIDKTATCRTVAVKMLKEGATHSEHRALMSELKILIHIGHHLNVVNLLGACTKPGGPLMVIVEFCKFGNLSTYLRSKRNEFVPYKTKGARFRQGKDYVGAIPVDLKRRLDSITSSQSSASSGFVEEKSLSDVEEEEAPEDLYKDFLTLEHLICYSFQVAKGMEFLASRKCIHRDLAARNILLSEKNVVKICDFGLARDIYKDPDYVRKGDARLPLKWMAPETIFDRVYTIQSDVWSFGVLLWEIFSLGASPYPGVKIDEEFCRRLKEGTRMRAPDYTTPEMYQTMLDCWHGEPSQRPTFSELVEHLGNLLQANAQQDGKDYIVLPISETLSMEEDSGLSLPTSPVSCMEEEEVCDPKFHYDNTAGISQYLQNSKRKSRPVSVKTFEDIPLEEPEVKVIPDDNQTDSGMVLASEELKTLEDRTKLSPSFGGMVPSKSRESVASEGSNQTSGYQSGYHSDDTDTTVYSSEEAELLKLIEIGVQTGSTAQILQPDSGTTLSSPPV
Experimental: as §1

[2] = tested on: A2780 (human ovary adenocarcinoma) cells; experiment: MTT cytotoxicity assay, A2780; type: cell-based; settings: Homo sapiens, A2780, mean ± SD of triplicate
Experimental: (§2) The cytotoxicity of the synthesised quinazolin-4(3H)-ones was evaluated by MTT assay, as previously described. Two cancer cell lines, MCF7 (human breast adenocarcinoma) and A2780 (human ovary adenocarcinoma), were used in this study, which were obtained from the ATCC (Rockville, MD, USA). […] Additionally, compounds were prepared at the same medium to obtain serial dilutions (50, 25, […] and 0.1 µM). […] The media were aspirated, and the formazan crystals were solubilised by adding 150 µL DMSO. Absorbance was read on a multi-plate reader (BioRad) at […]. […] The data were obtained from triplicates and analysed using statistical software.

[3] = tested on: MCF7 (human breast adenocarcinoma) cells; experiment: MTT cytotoxicity assay, MCF7; type: cell-based; settings: Homo sapiens, MCF7, mean ± SD of triplicate
Experimental: as §2

CDK2/CyclinA2 [4] = biological target: T1, CDK2/CyclinA2; experiment: CDK2 Assay Kit, Kinase-Glo MAX luminescence; type: biochemical; settings: one experimental data
Experimental: The CDK2 Assay Kit is designed to measure CDK2/CyclinA2 activity for screening and profiling applications, using Kinase-Glo® MAX as a detection reagent. The CDK2 Assay Kit comes in a convenient 96-well format, with enough purified recombinant CDK2/CyclinA2 enzyme, CDK substrate peptide, ATP and kinase assay buffer for 100 enzyme reactions. […] […] The compounds were diluted in 10% DMSO and 5 μl of the dilution was added to a 50 μl reaction so that the final concentration of DMSO was 1% in all of the reactions. All of the enzymatic reactions were conducted at 30 °C for 40 min. The 50 μl reaction mixture contained 40 mM Tris, pH 7.4, 10 mM MgCl2, 0.1 mg/mL BSA, 1 mM DTT, 10 mM ATP, Kinase substrate and the enzyme (CDK2/CyclinA2). After the enzymatic reaction, 50 μl of Kinase-Glo® MAX Luminescence kinase assay solution was added to each reaction and the plates were incubated for 5 min at room temperature. Luminescence signal was measured using a Bio Tek Synergy 2 microplate reader.
Figure S1. Calculation of the IC20 Values of Protein Kinase Enzyme CDK2 for 2f
* All the kinase IC20 (µM) were calculated according to the above equations.
(1 picture or pasted object on this page, not shown here)

HER2 = biological target: T4, HER2 (Homo sapiens, UniProt P04626); experiment: HER2 kinase assay kit, Kinase-Glo MAX luminescence; type: biochemical; settings: for inhibition at 0.01 µM / inhibition at 0.1 µM / inhibition at 1 µM / inhibition at 10 µM: one experimental data; for IC50: mean ± SD of triplicate
T4 construct: purchased #40721
T4 sequence (P04626 23-1255): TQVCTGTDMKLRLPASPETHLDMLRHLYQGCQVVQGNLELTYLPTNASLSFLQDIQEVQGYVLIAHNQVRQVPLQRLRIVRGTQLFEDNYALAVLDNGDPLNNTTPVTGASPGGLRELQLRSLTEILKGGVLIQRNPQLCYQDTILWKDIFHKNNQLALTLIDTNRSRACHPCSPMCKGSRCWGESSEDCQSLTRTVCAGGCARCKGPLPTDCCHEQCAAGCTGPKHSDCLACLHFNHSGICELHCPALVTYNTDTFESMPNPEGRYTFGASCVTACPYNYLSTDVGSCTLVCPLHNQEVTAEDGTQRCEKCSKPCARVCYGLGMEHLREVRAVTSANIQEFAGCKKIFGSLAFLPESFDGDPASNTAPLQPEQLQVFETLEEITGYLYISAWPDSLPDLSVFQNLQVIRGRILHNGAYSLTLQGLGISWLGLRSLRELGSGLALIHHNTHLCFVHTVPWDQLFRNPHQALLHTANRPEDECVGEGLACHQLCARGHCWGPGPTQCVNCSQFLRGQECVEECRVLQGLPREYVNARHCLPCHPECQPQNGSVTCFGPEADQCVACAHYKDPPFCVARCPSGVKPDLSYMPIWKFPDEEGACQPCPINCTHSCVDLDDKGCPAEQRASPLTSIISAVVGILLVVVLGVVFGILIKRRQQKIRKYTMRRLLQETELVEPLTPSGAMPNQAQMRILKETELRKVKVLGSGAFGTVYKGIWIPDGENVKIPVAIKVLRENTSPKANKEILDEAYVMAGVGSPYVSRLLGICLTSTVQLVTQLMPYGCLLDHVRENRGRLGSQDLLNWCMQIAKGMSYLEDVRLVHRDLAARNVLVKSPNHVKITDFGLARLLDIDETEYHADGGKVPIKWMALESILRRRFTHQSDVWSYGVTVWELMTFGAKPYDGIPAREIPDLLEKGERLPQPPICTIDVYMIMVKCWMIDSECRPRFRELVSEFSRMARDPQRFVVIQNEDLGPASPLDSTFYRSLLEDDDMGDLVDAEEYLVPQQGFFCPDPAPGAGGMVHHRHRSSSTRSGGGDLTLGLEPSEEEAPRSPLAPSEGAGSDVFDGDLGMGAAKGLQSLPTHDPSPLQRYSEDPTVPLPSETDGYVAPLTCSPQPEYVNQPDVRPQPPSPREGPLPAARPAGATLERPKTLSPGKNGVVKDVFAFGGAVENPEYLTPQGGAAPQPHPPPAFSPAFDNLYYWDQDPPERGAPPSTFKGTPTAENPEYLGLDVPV
Experimental: as §1

| Structure (SMILES) | IC50 (CDK2/CyclinA2 [1]) [nM] | inhibition at 0.01 µM (EGFR) [%] | inhibition at 0.1 µM (EGFR) [%] | inhibition at 1 µM (EGFR) [%] | inhibition at 10 µM (EGFR) [%] | IC50 (EGFR) [nM] | inhibition at 0.01 µM (VEGFR2) [%] | inhibition at 0.1 µM (VEGFR2) [%] | inhibition at 1 µM (VEGFR2) [%] | inhibition at 10 µM (VEGFR2) [%] | IC50 (VEGFR2) [nM] | melting point [°C] | IC50 [2] [nM] | IC50 [3] [nM] | inhibition at 0.01 µM (CDK2/CyclinA2 [4]) [%] | inhibition at 0.1 µM (CDK2/CyclinA2 [4]) [%] | inhibition at 1 µM (CDK2/CyclinA2 [4]) [%] | inhibition at 10 µM (CDK2/CyclinA2 [4]) [%] | inhibition at 0.01 µM (HER2) [%] | inhibition at 0.1 µM (HER2) [%] | also measured |
| --- | --- | --- | --- | --- | --- | --- | --- | --- | --- | --- | --- | --- | --- | --- | --- | --- | --- | --- | --- | --- | --- |
| CCOC(=O)CSc1nc2ccc(F)cc2c(=O)n1Cc1ccccc1 [2g, Ethyl 2-((3-benzyl-6-fluoro-4-oxo-3,4-dihydroquinazolin-2-yl)thio)acetate] | 444 ± 11 | 22.9 | 48.9 | 80.1 | 91.2 | 232 ± 30 | 2.43 | 18.8 | 44.1 | 29.2 | 702 ± 13 | 110 to 111 | 2400 ± 200 | 1220 ± 170 | 8.38 | 20.7 | 78.2 | 91.4 | 17.3 | 44.2 | inhibition at 1 µM (HER2): 83.5%; inhibition at 10 µM (HER2): 94.4%; IC50 (HER2): 884 ± 16 nM |
| CCOC(=O)CSc1nc2c(F)cc(F)cc2c(=O)n1Cc1ccccc1 [2h, Ethyl 2-((3-benzyl-6,8-difluoro-4-oxo-3,4-dihydroquinazolin-2-yl)thio)acetate] | 318 ± 23 | 3.71 | 27.5 | 21 | 77.3 | 102 ± 14 | 13.3 | 38.9 | 70.8 | 88 | 2190 ± 24 | 120 to 123 | 1400 ± 340 | 840 ± 160 | 2.43 | 12.5 | 24.4 | 80.2 | 9.07 | 38.9 | inhibition at 1 µM (HER2): 32.3%; inhibition at 10 µM (HER2): 82.3%; IC50 (HER2): 138 ± 12 nM |
| CCOC(=O)CSc1nc2cc(OC)c(OC)cc2c(=O)n1Cc1ccccc1 [2i, Ethyl 2-((3-benzyl-6,7-dimethoxy-4-oxo-3,4-dihydroquinazolin-2-yl)thio)acetate] | 173 ± 12 | 11.8 | 43.7 | 39.1 | 82.3 | 97 ± 19 | 8.13 | 31.8 | 20.3 | 77.8 | 2846 ± 14 | 104 to 105 | 1160 ± 100 | 2700 ± 160 | 4.28 | 40.5 | 37.8 | 83.7 | 20.4 | 24.4 | inhibition at 1 µM (HER2): 83.7%; inhibition at 10 µM (HER2): 94.8%; IC50 (HER2): 128 ± 24 nM |
| CCOC(=O)CSc1nc2c(C)cc(Cl)cc2c(=O)n1Cc1ccccc1 [2j] | 862 ± 16 | 22.2 | 49.9 | 84.3 | 90.2 | 813 ± 22 | 0.324 | 20.3 | 38.9 | 33.9 | 247 ± 15 | 132 to 134 | 2680 ± 90 | 3790 ± 960 | 4.28 | 40.5 | 37.8 | 83.7 | 12.3 | 47 | inhibition at 1 µM (HER2): 82.4%; inhibition at 10 µM (HER2): 93.5%; IC50 (HER2): 343 ± 15 nM |
| NNC(=O)CSc1nc2ccc(Cl)cc2c(=O)n1Cc1ccccc1 [3f, 2-((3-Benzyl-6-chloro-4-oxo-3,4-dihydroquinazolin-2-yl)thio)acetohydrazide] | 420 ± 13 | 3.31 | 31.3 | 31.4 | 84.8 | 440 ± 15 | 3.71 | 29.8 | 23.4 | 79.3 | 651 ± 14 | 151 to 152 | 1540 ± 600 | 340 ± 110 | 2.23 | 34.7 | 33.3 | 81 | 17.3 | 47.8 | inhibition at 1 µM (HER2): 82.2%; inhibition at 10 µM (HER2): 90.2%; IC50 (HER2): 132 ± 14 nM |
| NNC(=O)CSc1nc2c(F)cc(F)cc2c(=O)n1Cc1ccccc1 [3h, 2-((3-Benzyl-6,8-difluoro-4-oxo-3,4-dihydroquinazolin-2-yl)thio)acetohydrazide] | 257 ± 16 | 8.4 | 38 | 29.2 | 87.2 | 128 ± 16 | 3.17 | 19.5 | 33.4 | 33.1 | 1370 ± 26 | 185 to 186 | 630 ± 160 | 840 ± 50 | 3.74 | 19.9 | 70.2 | 82.1 | 2.73 | 44.4 | inhibition at 1 µM (HER2): 77.3%; inhibition at 10 µM (HER2): 89.8%; IC50 (HER2): 248 ± 23 nM |
